In ChEMBL document CHEMBL2062370, “Identification of glycogen synthase kinase-3 inhibitors with a selective sting for glycogen synthase kinase-3α” (J Med Chem, 2012):

What was measured:
Danio rerio = species on record: Danio rerio; experiment: Toxicity in wild type zebrafish embryo assessed as mortality up to 30 uM treated 5 hrs after post fertilization measured 5 days after post fertilization by microscopy; format: organism-based; settings: in vivo, 120 h
[1] = target: Glycogen synthase kinase-3 alpha (Homo sapiens, UniProt P49840); experiment: Inhibition of human recombinant GSK3alpha
Chain of Glycogen synthase kinase-3 alpha (P49840 whole entry): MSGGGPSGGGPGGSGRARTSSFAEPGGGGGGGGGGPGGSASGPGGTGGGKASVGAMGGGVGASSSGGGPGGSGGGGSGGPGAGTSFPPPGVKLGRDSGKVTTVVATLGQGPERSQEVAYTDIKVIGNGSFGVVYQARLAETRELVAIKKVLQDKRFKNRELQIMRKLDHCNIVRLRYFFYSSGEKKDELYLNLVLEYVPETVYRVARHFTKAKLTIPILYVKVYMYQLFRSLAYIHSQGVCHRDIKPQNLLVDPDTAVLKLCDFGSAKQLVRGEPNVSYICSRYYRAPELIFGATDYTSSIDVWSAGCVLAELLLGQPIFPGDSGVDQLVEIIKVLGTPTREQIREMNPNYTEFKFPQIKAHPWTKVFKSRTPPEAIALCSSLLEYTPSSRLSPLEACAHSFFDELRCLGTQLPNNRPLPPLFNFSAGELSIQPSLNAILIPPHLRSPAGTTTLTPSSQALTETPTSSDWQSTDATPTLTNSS

[2] = target: Glycogen synthase kinase-3 beta (Homo sapiens, UniProt P49841); experiment: Inhibition of human recombinant GSK3beta
Chain of Glycogen synthase kinase-3 beta (P49841 whole entry): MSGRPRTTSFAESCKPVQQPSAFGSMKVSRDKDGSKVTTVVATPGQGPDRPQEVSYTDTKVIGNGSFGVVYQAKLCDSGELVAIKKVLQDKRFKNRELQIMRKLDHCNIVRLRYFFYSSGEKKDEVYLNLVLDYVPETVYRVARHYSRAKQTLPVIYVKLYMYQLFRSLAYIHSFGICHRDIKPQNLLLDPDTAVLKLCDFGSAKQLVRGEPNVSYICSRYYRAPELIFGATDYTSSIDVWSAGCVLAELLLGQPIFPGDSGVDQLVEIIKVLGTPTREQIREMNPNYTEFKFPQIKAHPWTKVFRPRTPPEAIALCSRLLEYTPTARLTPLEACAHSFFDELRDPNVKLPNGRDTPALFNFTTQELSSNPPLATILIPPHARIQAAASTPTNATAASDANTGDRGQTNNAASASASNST

[3] = Aqueous solubility of the compound at 200 uM at pH 7.4 in phosphate buffer saline after 24 hrs by HPLC-UV/VIS spectroscopic analysis; format: physicochemical; settings: pH 7.4, 24 h
[4] = Octanol-phosphate buffer partition coefficient, log D of the compound at 100 uM at pH 7.4 after 60 mins by HPLC-UV/VIS spectroscopic analysis; format: physicochemical
Liver microsomes = experiment: Metabolic stability in human liver microsomes after 60 mins by HPLC MS/ Mass spectroscopic analysis; format: ADME, Microsome; settings: 1 h
Caco-2 = experiment: Permeability from apical to basolateral side of human Caco2 cells at pH 6.5/7.4 after 60 mins by HPLC MS/ Mass spectroscopic analysis; format: ADME, cell-based; settings: caco-2, pH 6.5, 1 h
[5] = target: Protein kinase C alpha type (Homo sapiens, UniProt P17252); experiment: Inhibition of human recombinant PKCalpha by FRET assay
Aurora kinase A = target: T1, Aurora kinase A (Homo sapiens, UniProt O14965); experiment: Inhibition of human recombinant AurKA by FRET assay
T1 sequence (O14965 whole entry): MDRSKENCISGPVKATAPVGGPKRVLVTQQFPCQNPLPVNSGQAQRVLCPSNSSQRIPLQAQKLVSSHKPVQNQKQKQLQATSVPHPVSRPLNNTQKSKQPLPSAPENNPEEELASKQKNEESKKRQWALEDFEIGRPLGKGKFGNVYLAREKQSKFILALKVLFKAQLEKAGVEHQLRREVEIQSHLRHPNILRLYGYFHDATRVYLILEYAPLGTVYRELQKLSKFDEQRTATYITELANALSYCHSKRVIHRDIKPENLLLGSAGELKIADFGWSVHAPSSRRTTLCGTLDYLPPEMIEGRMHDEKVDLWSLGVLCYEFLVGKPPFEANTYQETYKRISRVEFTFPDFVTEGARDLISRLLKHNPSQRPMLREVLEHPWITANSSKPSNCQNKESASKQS

[6] = target: Casein kinase I isoform epsilon (Homo sapiens, UniProt P49674); experiment: Inhibition of human recombinant CK1epsilon by FRET assay
Chain of Casein kinase I isoform epsilon (P49674 whole entry, canonical isoform): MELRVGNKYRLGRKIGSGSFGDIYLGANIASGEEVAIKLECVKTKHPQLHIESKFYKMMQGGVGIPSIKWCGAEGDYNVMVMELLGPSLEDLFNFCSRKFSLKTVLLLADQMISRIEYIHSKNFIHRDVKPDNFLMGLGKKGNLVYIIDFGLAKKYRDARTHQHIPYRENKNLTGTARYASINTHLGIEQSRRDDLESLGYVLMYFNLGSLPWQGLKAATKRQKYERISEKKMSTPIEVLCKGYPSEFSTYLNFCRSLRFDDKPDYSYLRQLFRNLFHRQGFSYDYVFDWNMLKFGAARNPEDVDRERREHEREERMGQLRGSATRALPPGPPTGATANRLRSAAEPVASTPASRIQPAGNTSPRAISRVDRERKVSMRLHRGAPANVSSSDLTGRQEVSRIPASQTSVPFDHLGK

[7] = target: Cyclin-dependent kinase 5/CDK5 activator 1 (Homo sapiens, UniProt Q00535); experiment: Inhibition of human recombinant CDK5/p35 by FRET assay; format: protein-complex assay
Chain of Cyclin-dependent kinase 5/CDK5 activator 1 (Q00535 whole entry): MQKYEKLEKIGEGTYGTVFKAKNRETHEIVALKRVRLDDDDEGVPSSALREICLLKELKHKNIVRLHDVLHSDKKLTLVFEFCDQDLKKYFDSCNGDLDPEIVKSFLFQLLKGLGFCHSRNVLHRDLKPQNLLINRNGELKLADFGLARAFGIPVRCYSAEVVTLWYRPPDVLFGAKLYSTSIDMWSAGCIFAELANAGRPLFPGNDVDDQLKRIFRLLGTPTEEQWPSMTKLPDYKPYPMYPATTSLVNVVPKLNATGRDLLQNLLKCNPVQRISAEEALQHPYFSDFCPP
Chain of Cyclin-dependent kinase 5/CDK5 activator 1 (Q15078 whole entry, further chain): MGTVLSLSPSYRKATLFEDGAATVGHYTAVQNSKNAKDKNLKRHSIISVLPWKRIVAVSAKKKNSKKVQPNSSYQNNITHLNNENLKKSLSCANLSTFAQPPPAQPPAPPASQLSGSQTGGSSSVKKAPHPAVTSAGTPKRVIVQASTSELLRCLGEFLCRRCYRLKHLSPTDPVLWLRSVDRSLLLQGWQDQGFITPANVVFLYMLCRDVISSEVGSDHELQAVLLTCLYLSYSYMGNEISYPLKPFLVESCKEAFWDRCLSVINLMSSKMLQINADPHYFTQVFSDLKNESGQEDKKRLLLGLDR

Compound	Activity (Danio rerio)	IC50 [1] [µM]	IC50 [2] [µM]	solubility [3]	logD at 1 h, 100 µM [4]	Stability (Liver microsomes)	permeability (Caco-2)	IC50 [5] [µM]	IC50 (Aurora kinase A) [µM]	IC50 [6] [µM]	IC50 [7] [µM]
N#Cc1ccc(CSc2nnc(-c3ccncc3)o2)cc1	Non-toxic	7.38	10	–	–	–	–	–	–	–	–
N#Cc1ccc(-c2ccc(CSc3nnc(-c4ccc5c(c4)OCO5)o3)cc2)cc1	Non-toxic	–	–	Insoluble	3.58	Stable	impermeable	> 100	30	60	> 100
N#Cc1cccc(CSc2nnc(-c3ccc4c(c3)OCO4)o2)c1	Non-toxic	0.015	0.065	–	–	–	–	–	–	–	–
N#Cc1ccc(CSc2nnc(-c3ccc4c(c3)OCO4)o2)cc1	Non-toxic	0.015	0.13	–	–	–	–	–	–	–	–
N#Cc1cccc(CSc2nnc(-c3ccc4c(c3)OCCO4)o2)c1	Non-toxic	0.095	0.086	–	–	–	–	–	–	–	–
N#Cc1ccc(CSc2nnc(-c3ccc4c(c3)OCCO4)o2)cc1	Non-toxic	0.045	0.166	–	–	–	–	–	–	–	–
COC(=O)c1ccc(CSc2nnc(-c3ccc4c(c3)OCCO4)o2)cc1	Non-toxic	–	–	–	–	–	–	> 100	> 100	> 100	> 100
N#Cc1cccc(CSc2nnc(-c3ccncc3)o2)c1	Non-toxic	3.21	3.16	–	–	–	–	–	–	–	–
c1cc(-c2nnn[nH]2)ccc1CSc1nnc(-c2ccc3c(c2)OCO3)o1	Non-toxic	0.107	0.172	–	–	–	–	–	–	–	–
COC(=O)c1ccc(CSc2nnc(-c3ccc4c(c3)OCO4)o2)cc1	Non-toxic	–	–	–	–	–	–	–	–	–	–
O=C(O)c1ccc(CSc2nnc(-c3ccc4c(c3)OCO4)o2)cc1	Non-toxic	–	–	–	–	–	–	–	–	–	–
CC(C)CNC(=O)c1ccc(CSc2nnc(-c3ccc4c(c3)OCO4)o2)cc1	Non-toxic	–	–	–	–	–	–	–	–	–	–
COC(CNC(=O)c1ccc(CSc2nnc(-c3ccc4c(c3)OCO4)o2)cc1)OC	Non-toxic	–	–	–	–	–	–	–	–	–	–
O=C(O)c1ccc(CSc2nnc(-c3ccc4c(c3)OCCO4)o2)cc1	Non-toxic	–	–	–	–	–	–	–	–	–	–
CC(C)CNC(=O)c1ccc(CSc2nnc(-c3ccc4c(c3)OCCO4)o2)cc1	Non-toxic	–	–	–	–	–	–	–	–	–	–
COC(CNC(=O)c1ccc(CSc2nnc(-c3ccc4c(c3)OCCO4)o2)cc1)OC	Non-toxic	–	–	–	–	–	–	–	–	–	–
O=C(NCc1ccccc1)c1ccc(CSc2nnc(-c3ccc4c(c3)OCCO4)o2)cc1	Non-toxic	–	–	–	–	–	–	–	–	–	–
c1ccc(-c2ccc(CSc3nnc(-c4ccc5c(c4)OCO5)o3)cc2)cc1	Non-toxic	0.009	0.176	–	–	–	–	> 100	> 100	> 100	> 100
N#Cc1cc(F)ccc1-c1ccc(CSc2nnc(-c3ccc4c(c3)OCO4)o2)cc1	Non-toxic	0.003	0.022	–	–	–	–	> 100	30	20	> 100
N#Cc1ccccc1-c1ccc(CSc2nnc(-c3ccc4c(c3)OCO4)o2)cc1	Non-toxic	< 0.005	0.039	–	–	–	–	> 100	> 100	> 100	> 100
N#Cc1ccccc1-c1ccc(CSc2nnc(-c3ccc4c(c3)OCCO4)o2)cc1	Non-toxic	< 0.005	< 0.005	–	–	–	–	> 100	> 100	> 100	> 100
N#Cc1cc(F)ccc1-c1ccc(CSc2nnc(-c3ccc4c(c3)OCCO4)o2)cc1	Non-toxic	–	–	–	–	–	–	> 100	5	> 100	> 100
N#Cc1ccccc1-c1ccc(CSc2nnc(-c3ccncc3)o2)cc1	Non-toxic	0.019	0.041	–	–	–	–	> 100	> 100	> 100	> 100
COC[C@@H]1COc2ccc(-c3nnc(SCc4ccc(-c5ccccc5C#N)cc4)o3)cc2O1	Non-toxic	0.195	0.758	–	–	–	–	> 100	> 100	> 100	> 100
COC[C@H]1COc2ccc(-c3nnc(SCc4ccc(-c5ccccc5C#N)cc4)o3)cc2O1	Non-toxic	0.015	0.129	–	–	–	–	> 100	> 100	> 100	> 100
Ic1cccc(CSc2nnc(-c3ccncc3)o2)c1	Non-toxic	0.39	–	–	–	–	–	–	–	–	–
c1ccc(CSc2nnc(-c3ccncc3)o2)cc1	Non-toxic	2.24	1.32	–	–	–	–	–	–	–	–
COCC1COc2ccc(-c3nnc(SCc4ccc(-c5ccccc5C#N)cc4)o3)cc2O1 (racemic)	Non-toxic	0.054	0.233	–	–	–	–	> 100	30	> 100	> 100
